This is an account of results in ChEMBL document CHEMBL1795225, “Flavonoids as inhibitors of human CD38” (Bioorg Med Chem Lett, 2011).

Molecules are shown by their SMILES.

The target of the assay is T1, ADP-ribosyl cyclase/cyclic ADP-ribose hydrolase 1 (Homo sapiens, UniProt P28907).
T1 sequence (P28907 whole entry): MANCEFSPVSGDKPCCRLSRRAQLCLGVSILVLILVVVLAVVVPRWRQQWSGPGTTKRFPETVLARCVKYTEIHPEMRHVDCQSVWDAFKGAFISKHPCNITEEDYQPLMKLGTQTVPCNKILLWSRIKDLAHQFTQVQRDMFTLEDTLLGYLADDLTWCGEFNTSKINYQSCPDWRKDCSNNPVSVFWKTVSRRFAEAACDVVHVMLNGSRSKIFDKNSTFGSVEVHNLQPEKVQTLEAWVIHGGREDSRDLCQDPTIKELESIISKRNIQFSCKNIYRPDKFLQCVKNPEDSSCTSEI
Kind of assay: Inhibition of human CD38 using 20 uM 1, N6-etheno NAD+ as substrate by continuous fluorimetric method.

`Oc1ccc(-c2[o+]c3cc(O)c(O)c(O)c3cc2O)cc1O` came in with a 50% inhibitory concentration (IC50) of 14.2 µM.
In turn, `Oc1cc(O)c2c(c1)OC(c1ccc(O)c(O)c1)C(O)C2` (racemic) [CATECHIN] gave a half-maximal inhibitory concentration (IC50) of over 100 µM.
For `Oc1cc(O)c2cc(O)c(-c3ccc(O)c(O)c3)[o+]c2c1` [CYANIDIN] the value was 21.8 µM; for `Oc1cc(O)c2cc(O)c(-c3cc(O)c(O)c(O)c3)[o+]c2c1` [DELPHINIDIN], 14.6 µM; for `COc1ccc(-c2ccc3c(O)cc(O)cc3[o+]2)cc1O` [DIOSMETINIDIN], 32.1 µM.
With `Oc1ccc2cc(O)c(-c3ccc(O)c(O)c3)[o+]c2c1` [FISETINIDIN], inhibition was half-maximal at 70.3 µM (IC50).
The molecule `OC[C@H]1O[C@@H](Oc2cc3c(O)cc(O)cc3[o+]c2-c2ccc(O)c(O)c2)[C@H](O)[C@@H](O)[C@@H]1O` [KUROMANIN] returned a concentration for half-maximal inhibition (IC50) of 6.3 µM.
For `Oc1cc(O)c2ccc(-c3ccc(O)c(O)c3)[o+]c2c1` [LUTEOLINIDIN] the value was 6 µM; for `O=c1cc(-c2ccc(O)c(O)c2)oc2cc(O)cc(O)c12` [LUTEOLIN], 8.2 µM; for `COc1cc(-c2[o+]c3cc(O)cc(O)c3cc2O)cc(OC)c1O` [MALVIDIN], 17 µM.
`O=c1c(O)c(-c2cc(O)c(O)c(O)c2)oc2cc(O)cc(O)c12` [MYRICETIN] showed an IC50 of 24.8 µM.
The figure for `Oc1ccc(-c2[o+]c3cc(O)cc(O)c3cc2O)cc1` [PELARGONIDIN] is 16.3 µM.
Molecule `COc1cc(-c2[o+]c3cc(O)cc(O)c3cc2O)cc(O)c1O` [PETUNIDIN] gave a 50% inhibitory concentration (IC50) of 39.2 µM.
The figure for `Oc1cc(O)cc(/C=C/c2ccc(O)c(O)c2)c1` [PICEATANNOL] is over 100 µM.
The figure for `O=c1c(O)c(-c2ccc(O)c(O)c2)oc2cc(O)c(O)c(O)c12` [QUERCETAGETIN] is 48.6 µM; for `O=c1c(O)c(-c2ccc(O)c(O)c2)oc2cc(O)cc(O)c12` [QUERCETIN] it is 37.9 µM.
The figure for `Oc1ccc(/C=C/c2cc(O)cc(O)c2)cc1` [RESVERATROL] is over 100 µM; for `O=c1c(O)c(-c2cc(O)c(O)c(O)c2)oc2cc(O)ccc12` [ROBINETIN] it is 37.9 µM.

The IC50 is the point on the concentration scale where inhibition reaches its midpoint. A low value points to greater potency.
